Here are results for three compounds from article PMC8471001 (Biosensors, 2021).

SMILES strings stand for the structures. “Also recorded” adds a separate entry of the source.

In assay [1] the target is tyrosinase (EC 1.14.18.1, from mushroom). Kind of assay: Amperometric biosensor: tyrosinase immobilized on carbon black paste electrode, inhibition of catechol response. It is filed as biochemical. Conditions: for IC50: 0.1 M phosphate buffer pH 6.8, -0.15 V vs. Ag/AgCl; for IC50 / type of inhibition: immobilized tyrosinase; for type of inhibition: from shift of inhibition curve, 20 vs 200 µM catechol; for inhibition range of catechol response: 20 µM catechol. As to the method: The immobilization of tyrosinase onto the surface of the carbon black paste electrode (CBPE) was achieved by cross-linking with glutaraldehyde and bovine serum albumin (BSA) as reported elsewhere for several enzyme biosensors. In brief, the enzyme solution was first prepared by mixing 15 µL of Tyr (35 U/mL), 7.5 µL of BSA (1% w/v), and 7.5 µL of glutaraldehyde (0.25% w/v) on a glass slide. Then, 7.5 µL of the mixture was spread on the surface of a CBPE, and lastly, it was dried at room temperature for 1 h. Before electrochemical measurements, the enzyme electrode was placed under stirring for 10 min in PBS buffer to remove the enzyme not firmly immobilized. The electrodes were maintained at 4 °C in phosphate buffer, pH 6.8 until use.
The tyrosinase was immobilized on the surface of the carbon black paste electrode. The electrochemical measurements of o-quinone produced by the tyrosinase-based biosensor, in presence of catechol as substrate, were monitored by an amperometric measurement.
The enzyme activity assays were performed in an electrochemical cell containing 5 mL of 0.1 M phosphate buffer, pH 6.8 at 25 °C. The applied potential was fixed at −0.15 V.
To perform each amperometric measurement, the CBPE-Tyr electrode was dipped into an electrochemical cell containing 5 mL of 0.1 M phosphate buffer solution (pH 6.8) under constant magnetic stirring. The applied potential was fixed to −0.15 V versus Ag/AgCl. Once the baseline was established (10 min approximately), a defined amount of catechol solution was added to the measuring cell. […] Then, the inhibitor solutions were added consecutively each time a plateau was reached (approximately every 30 s). The addition of tyrosinase inhibitors causes an inhibition of the enzyme, consequently decreasing the amount of liberated enzymatic reaction products.
(§1) To evaluate the degree of inhibition (I%) of the tyrosinase activity, signal responses in the absence (I0) and the presence of an inhibitor (I1) were measured with either an electrochemical or colorimetric method. The degree of inhibition (I%) is expressed as follows: (1) I(%)=I0−I1/I0×100
When using the amperometric biosensor, the CBPE/Tyr modified electrode was immersed into a phosphate buffer solution at pH 6.8, under stirring and a fixed potential of −0.15 V. After stabilizing the baseline current, a fixed amount of catechol (substrate) was added to reach a steady-state current (I0) before adding the inhibitor. […] The concentration of inhibitors was increased to inhibit tyrosinase activity, and the current decrease (I1) was recorded.

The test system of a further assay is mushroom tyrosinase. Briefly: Spectrophotometric progress-curve assay of free tyrosinase with L-tyrosine (half-time reaction t'1/2). Format: biochemical. Conditions: plot of t'1/2 versus inhibitor concentration at 0.5-3 mM L-tyrosine. As to the method: Substrate conversion was evaluated by measuring the increase in absorbance at 490 nm. The absorbance was sampled every 1 min, allowing each progression curve to be constructed in 40 min.
as §1

Turning to `O=C(O)c1ccccc1` [benzoic acid], the half-maximal inhibitory concentration (IC50) in assay [1] (20 µM catechol substrate) is 119 µM; in assay [1] (200 µM catechol substrate) it was 500 µM. Further, in assay [1], the type of inhibition entry is on record as “competed with catechol”. Moreover, the “inhibition range of catechol response” value in assay [1] (inhibitor 5 µM to 275 µM) was 8–69%.
`O=c1cc(CO)occ1O` [kojic acid]: the type of inhibition entry is given as “competitive inhibition; also recorded: competed with catechol” in assay [1] and “competitive inhibition” in the assay with mushroom tyrosinase. In assay [1] (inhibitor 2.5 µM to 97.5 µM), the “inhibition range of catechol response” value is listed as 13–74%.
With `[N-]=[N+]=[N-].[Na+]` [sodium azide], the half-maximal inhibitory concentration (IC50) was found to be 1480 µM in assay [1] (20 µM catechol substrate) and 2000 µM in assay [1] (200 µM catechol substrate). In addition, in assay [1], the type of inhibition entry is “competed with catechol”. The “inhibition range of catechol response” value in assay [1] (inhibitor 0.01 mM to 1.57 mM) was 7–64%.

As a reminder, the IC50 is the concentration needed to halve the response being measured. A higher IC50 goes with weaker potency.
